{"source": "patent US20110294736A1", "about": "“COMPOUNDS AND METHODS FOR THE TREATMENT OF AUTOIMMUNE AND INFLAMMATORY DISEASE” (THE PROVOST, FELLOWS AND SCHOLARS OF THE HOLY AND UNDIVIDED …, priority 2008, published 2011)", "tested_on": "BMDC", "test": "IL-12p40, IL-23, IL-12p70 and IL-10 ELISA in BMDC with p38 or ERK inhibitor, Tri-DAP and LPS or CpG", "type": "cell-based, murine", "conditions": "ERK inhibitor 5 μM 30 minutes before Tri-DAP 100 μg/ml", "experimental": "BMDC (1×10^6) were pretreated with the p38 inhibitor, SB203580 (5 μM—FIGS. 10-11), or the ERK inhibitor UO126 (5 μM—FIGS. 12-13) for 30 minutes prior to stimulation with Tri-DAP (100 μg/ml) or medium alone. After 2 hours the cells were then stimulated with LPS (100 ng/ml—FIGS. 10 and 12), with the TLR agonist CpG (5 μg/ml—FIGS. 11 and 13) or with medium alone. Supernatants were collected after 24 hours and IL-12p40, IL-23, IL-12p70 and IL-10 concentrations were quantified by ELISA.", "data": [{"compound": "N#CC(=C(/N)Sc1ccccc1N)/C(C#N)=C(\\N)Sc1ccccc1N", "note": "[U0126, reference compound]", "values": [{"measurement": "enhancement of LPS induced IL-12p70 by Tri-DAP", "setting": "LPS 100 ng/ml", "value": "only marginally affected"}, {"measurement": "enhancement of LPS induced IL-23 production by Tri-DAP", "setting": "LPS 100 ng/ml", "value": "suppressed"}, {"measurement": "IL-10 production by Tri-DAP with LPS or with CpG", "setting": "LPS 100 ng/ml or CpG 5 μg/ml", "value": "suppressed"}]}]}
